“Also recorded” adds a separate entry of the source.

From US10123985B2, “Therapeutic strategies for treating mitochondrial disorders” (Whitehead Institute for Biomedical Research, priority 2015, dated 2018) come the findings set out here.

Holding throughout (assay type): cell-based
One data set deals with 143B WT cybrid cells. Put plainly: Proliferation assay of respiration-competent 143B WT cybrid cells. Particulars: presence or absence of the substance. On the procedure: (§1) 143B, A172, H1299, HeLa, U87 and MEF cells were cultured in Dulbecco's Modified Eagle's Medium (DMEM) (Gibco) supplemented with 10% fetal bovine serum (FBS) and penicillin-streptomycin. FL5.12 cells were cultured in the same medium and supplemented with 5 μg/mL recombinant mouse IL-3 (R&D Systems). 143B cybrid cell lines (WT Cybrid and CytB) were cultured in DMEM with 10% FBS, penicillin-streptomycin, and 0.1 mg/mL uridine. All cells incubated at 37° C. with 5% CO2.
(§2) Adherent cell lines growing in log phase were trypsinized, counted, and plated onto 6 well dishes (Corning) in 2 mL complete DMEM and incubated overnight. Initial seeding density was 2E4 cells per well for 143B, A172, H1299, HeLa, 143B WT Cybrid, and MEFs and 3E4 cells for 143B CytB and U87 cells. The following day, one plate of cells was counted to determine the initial cell count at the time of treatment. Cells were washed 2 times with 2 mL phosphate buffered saline (PBS) and 4 mL media premixed with the indicated treatments was added. FL5.12 cells, a suspension cell line, were washed 2 times in PBS and added directly to media containing the indicated treatments and 5 μg/mL recombinant mouse IL-3. Proliferation rate assay media was DMEM without pyruvate containing 10% dialyzed FBS, penicillin-streptomycin, and 0.1 mg/mL uridine, unless otherwise noted. For these cell lines at these seeding densities it was determined that for 4 days the cells maintained logarithmic proliferation (data not shown), therefore final cell counts were measured 4 days after treatment. Cells were counted using Cellometer Auto T4 Plus Cell Counter (Nexcelom Bioscience). Proliferation rate was determined using the following formula: Proliferation Rate (Doublings per day)=(log2(Final cell count (day 5)/Initial cell count (day 1))/4 (days)

Data set [1] relates to 143B WT cybrid and 143B CytB cells. Kind of data set: Mitochondrial oxygen consumption (Seahorse XF24), cybrid cells. The settings on record: presence or absence of the substance. The procedure: Oxygen consumption rates were determined on a Seahorse Bioscience Extracellular Flux Analyzer (XF24). Cells were plated in Seahorse Bioscience 24 well plates at 6E4 cells per well in 100 μL complete DMEM, allowed to attach for 1 hour, and 500 μl complete DMEM was added before overnight incubation. The following day cells were washed 2 times in assay media: DMEM without phenol red or pyruvate containing 0.5% dialyzed FBS and 0.1 mg/mL uridine at pH 7.4 and incubated in 500 μL of the same media for the assay. Oxygen consumption measurements were compared either, between basal measurements and following injection of the compound (AKB, rotenone, antimycin), or between wells cultured overnight in their treatment conditions (aspartate, oligomycin, FCCP). The latter conditions were used due to solubility constraints (aspartate) or kinetic constraints of the compound (oligomycin). These measurements were then subtracted from oxygen consumption measurements following addition of high dose rotenone and antimycin treatment (2 μM each) to determine the mitochondria specific oxygen consumption rate. Following measurements, the number of cells in the wells was counted, averaged for each treatment condition, and the mitochondrial oxygen consumption rates were normalized to 1E5 cells.

In data set [2] the test system is A172, H1299, HeLa, U87, FL5.12, and MEF cell lines. Kind of data set: Proliferation assay of a panel of cell lines treated with respiration inhibitors. Particulars: rotenone, antimycin or oligomycin plus the substance. On the procedure:
as §1, §2

In data set [3] the test system is 143B CytB cells. Put plainly: Proliferation assay of respiration-incompetent 143B CytB cybrid cells. The settings on record: for Proliferation rate of 143B CytB cells: media supplemented with the substance, no pyruvate unless tested, uridine present. The procedure: FL5.12 cells were cultured in the same medium and supplemented with 5 μg/mL recombinant mouse IL-3 (R&D Systems). […] All cells incubated at 37° C. with 5% CO2.
as §2, with “Initial seeding density was 2E4 cells per well for 143B, A172, H1299, HeLa, 143B WT Cybrid, and MEFs and 3E4 cells for 143B CytB and U87 cells.” left out, “For these cell lines at these seeding densities it was determined that for 4 days the cells maintained logarithmic proliferation (data not shown), therefore final cell counts were measured 4 days after treatment.” left out

Data set [4] concerns MERRF and CYTB cybrids, 143B ρ0 cells. Kind of data set: Cell counting assay of cybrids and 143B ρ0 cells. The settings on record: 6 days; for Proliferation of ETC-deficient cybrids and 143B ρ0 cells: RPMI with uridine, pyruvate (1 mM) or aspartate (10 mM); for Proliferation of ETC-defective cybrids expressing sgGOT1: uridine and pyruvate (1 mM), with or without aspartate (10 mM). On the procedure: Cybrids or 143B ρ0 cells were plated in triplicate in 12 well plates at 5,000-20,000 cells per well in 1.5 mL as described in each experiment. After six days, the entire contents of the well was trypsinized and counted using a Beckman Z2 Coulter Counter with a size selection setting of 8-30 um.
Transmitochondrial cytoplasmic hybrid cells (cybrids) are commonly used to study the mechanisms through which mutations in mitochondrial DNA (mtDNA) impair cellular function (Schon et al., 2012). These cells harbor patient-derived mitochondrial genomes with pathogenic mutations, and, like cells treated with ETC inhibitors, require pyruvate to proliferate in culture (King and Attardi, 1989, 1996). To expand upon our work with pharmacological inhibition of the ETC, we asked if aspartate supplementation rescues the proliferation of cells with genetic ETC defects. We used two patient-derived cybrid cells, the first with a homoplasmic microdeletion in the cytochrome b subunit of complex III (CYTB) associated with a form of parkinsonism and encephalopathy (De Coo et al., 1999; Rana et al., 2000), and the second with a homoplasmic point mutation in the mitochondrially encoded tRNA lysine (MT-TK) associated with myoclonic epilepsy with ragged red fibers (MERRF) (Wallace et al., 1988). To characterize the metabolic needs of these cybrids, as well as cells lacking mtDNA (143B ρ0), we cultured them in media with or without pyruvate or aspartate.

The test system of data set [5] is 143B CytB cells. Kind of data set: Measurement of NAD+/NADH (NAD/NADH Glo) in 143B CytB cells. The settings on record: absence or presence of the substance. The procedure: NAD^+/NADH measurements were done using a modified version of manufacturer instructions of NAD/NADH Glo Assay (Promega). Cells were plated and treated as for proliferation assays and cell extracts were taken 6 hours after treatment. For extraction, cells were quickly washed 3 times in ice cold PBS, extracted in 100 μL ice cold lysis buffer (1% Dodecyltrimethylammonium bromide (DTAB) in 0.2 N NaOH diluted 1:1 with PBS), and immediately frozen at −80° C. To measure NADH, 20 μL of sample was moved to PCR tubes and incubated at 75° C. for 30 min, where the basic conditions will selectively degrade NAD^+. To measure NAD^+, 20 μL of the samples was moved to PCR tubes containing 20 μL lysis buffer and 20 μL 0.4 N HCl and incubated at 60° C. for 15 min, where acidic conditions will degrade NADH. Following incubations, samples were allowed to equilibrate to room temperature and then quenched by neutralizing with 20 μL 0.25 M Tris in 0.2 N HCl (NADH) or 20 μL 0.5 M Tris base (NAD^+). Manufacturer instructions were followed thereafter to measure NAD^+/NADH.

On to `N[C@@H](CC(=O)O)C(=O)O` [aspartate], for which the “Proliferation rate of 143B WT cybrid cells” value in the data set with 143B WT cybrid cells was “did not have gross proliferation differences”. Moreover, the “Mitochondrial oxygen consumption rate” value in data set [1] is recorded as “neither increased mitochondrial oxygen consumption”. Besides, the “Proliferation of cell line panel with supplementation” value in data set [2] is “rescued ETC inhibitor-induced proliferation decreases in all other cell lines tested”. Moreover, in the data set with 143B CytB cells [3] (inferred from supra-physiological doses required to restore growth), the Cell permeability entry is “nearly impermeable to cells”. The “Proliferation rate of 143B CytB cells” value with 143B CytB cells [3] is “capable of supporting exponential growth of 143B CytB cells”. In data set [4], the “Proliferation of ETC-deficient cybrids and 143B ρ0 cells” value was “on its own enabled their proliferation; also recorded: can replace pyruvate in enabling the proliferation of patient-derived mtDNA mutant cybrids and 143B ρ0 cells”; the “Proliferation of ETC-defective cybrids expressing sgGOT1” value is “bypassed the need for GOT1; also recorded: can be bypassed by aspartate”. Also, the “Cellular NAD+/NADH ratio” value in the data set with 143B CytB cells [5] is “nor did it affect the NAD^+/NADH ratio”.

Take `CCC(=O)C(=O)O` [AKB, α-ketobutyrate]: the “Proliferation rate of 143B WT cybrid cells” value with 143B WT cybrid cells is listed as “does not impact proliferation of 143B WT cybrids”. The “Mitochondrial oxygen consumption rate” value in data set [1] is recorded as “does not alter oxygen consumption”. For the same compound, the “Proliferation of cell line panel with supplementation” value in data set [2] is listed as “sufficient to restore proliferation in the presence of ETC inhibitors”. In the data set with 143B CytB cells [3] (AKB in the presence or absence of uridine), the “Uridine auxotrophy of 143B CytB cells” value is “does not alleviate uridine auxotrophy of 143B CytB cells”. In addition, the “Proliferation rate of 143B CytB cells” value in the data set on 143B CytB cells [3] is recorded as “rescued proliferation rate of 143B CytB cells to levels similar to what was observed with pyruvate addition”. In the data set with 143B CytB cells [5], the “Cellular NAD+/NADH ratio” value is listed as “sufficient to increase the cellular NAD^+/NADH ratio”.

Turning to `CC(=O)C(=O)O` [pyruvate], the “Proliferation rate of 143B WT cybrid cells” value with 143B WT cybrid cells is reported as “divide at a similar rate; also recorded: does not impact proliferation of 143B WT cybrids”. The “Proliferation rate of 143B CytB cells” value in the data set on 143B CytB cells [3] was “divide at a similar rate”. Moreover, in data set [4], the “Proliferation of ETC-deficient cybrids and 143B ρ0 cells” value was “proliferated in media supplemented with pyruvate”; the “Proliferation of ETC-defective cybrids expressing sgGOT1” value was “requires GOT1; also recorded: enables the proliferation of patient-derived cybrid cells in a GOT1-dependent fashion”. In the data set on 143B CytB cells [5], the “Cellular NAD+/NADH ratio” value is given as “sufficient to increase the cellular NAD^+/NADH ratio”.
